Assay results reported in US8445680B2, “Tetrahydrothieno pyridines” (Merck Sharp & Dohme Corp., priority 2008, dated 2013).
Structures can show the parent of a compound that is named as a salt.

The compounds below were run against T1, FLAG-tagged full length PHD2 (Homo sapiens, UniProt Q9GZT9) (assay: PHD2 inhibition assay (time resolved fluorescence, HIF-1α peptide hydroxylation, VHL detection)). Details: 0.2 μM 2-oxoglutarate, 0.5 μM HIF-1α peptide, 2 hr at room temperature; read-out: PHD2 Activity (PHD2 binding activity expressed as IC50).
T1 construct: FLAG-tagged full length PHD2; FLAG; made in house; host or cells: baculovirus-infected Sf9 cells
T1 sequence (Q9GZT9 whole entry): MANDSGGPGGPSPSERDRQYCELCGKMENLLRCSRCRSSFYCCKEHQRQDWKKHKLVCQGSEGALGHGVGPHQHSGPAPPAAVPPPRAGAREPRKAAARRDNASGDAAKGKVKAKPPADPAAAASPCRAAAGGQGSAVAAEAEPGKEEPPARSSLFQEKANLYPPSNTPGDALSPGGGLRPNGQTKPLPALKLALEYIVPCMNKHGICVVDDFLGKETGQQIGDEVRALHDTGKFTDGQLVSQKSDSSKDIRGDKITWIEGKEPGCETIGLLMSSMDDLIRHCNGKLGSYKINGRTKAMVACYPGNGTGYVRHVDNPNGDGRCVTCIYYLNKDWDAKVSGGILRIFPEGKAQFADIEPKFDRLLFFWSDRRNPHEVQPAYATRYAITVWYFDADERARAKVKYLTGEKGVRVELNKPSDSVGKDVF
Format: biochemical
Method: To each well of a 96-well plate was added 1 μL of test compound in DMSO and 20 μl of assay buffer (50 mM Tris pH 7.4/0.01% Tween-20/0.1 mg/ml bovine serum albumin/10 μM ferrous sulfate/1 mM sodium ascorbate/20 μg/ml catalase) containing 0.15 μg/ml FLAG-tagged full length PHD2 expressed in and purified from baculovirus-infected Sf9 cells. After a 30 min preincubation at room temperature, the enzymatic reactions were initiated by the addition of 4 μL of substrates (final concentrations of 0.2 μM 2-oxoglutarate and 0.5 μM HIF-1α peptide biotinyl-[…]).
O=C(O)CNC(=O)c1c(O)c2c(n(Cc3ccc(-c4ccccc4F)nc3)c1=O)CSC2 [Example 43, N-[(l-{[6-(2-fluorophenyl)pyridin-3-yl]methyl}-4-hydroxy-2-oxo-1,2,5,7-tetrahydrothieno[3,4-b]pyridin-3-yl)carbonyl]glycine] was tested, and the IC50 was at most 10 nM. Work on O=C(O)CNC(=O)c1c(O)c2c(n(Cc3cnc(-c4ccccc4Cl)cn3)c1=O)CSC2 [Example 53, N-[(1-{[-5-(2-chlorophenyl)pyrazin-2-yl]methyl}-4-hydroxy-2-oxo-1,2,5,7-tetrahydrothieno[3,4-b]pyridin-3-yl)carbonyl]glycine] yielded an IC50 of at most 10 nM. For O=C(O)CNC(=O)c1c(O)c2c(n(Cc3ccc(-c4cccs4)cc3)c1=O)CSC2 [Example 35, N-({4-hydroxy-2-oxo-1-[4-(2-thienyl)benzyl]-1,2,5,7-tetrahydrothieno[3,4-b]pyridin-3-yl}carbonyl)glycine], the IC50 was at most 10 nM. Cc1ccc(-c2ccc(Cn3c4c(c(O)c(C(=O)NCC(=O)O)c3=O)CS(=O)(=O)C4)cc2)cc1 [Example 58, N-({4-hydroxy-1-[(4′-methylbiphenyl-4-yl)methyl]-6,6-dioxido-2-oxo-1,2,5,7-tetrahydrothieno[3,4-b]pyridin-3-yl}carbonyl)glycine] showed an IC50 of at most 10 nM. With O=C(O)CNC(=O)c1c(O)c2c(n(Cc3ccc(-c4ccc(F)cc4)nc3)c1=O)CSC2 [Example 40, N-[(1-{[6-(4-fluorophenyl)pyridinium-3-yl]methyl}-4-hydroxy-2-oxo-1,2,5,7-tetrahydrothieno[3,4-b]pyridin-3-yl)carbonyl]glycine trifluoroacetate] the IC50 was at most 10 nM. Compound CC(C)(C)c1ccc(Cn2c3c(c(O)c(C(=O)NCC(=O)O)c2=O)CSC3)cc1 [Example 9, N-{[1-(4-tert-butylbenzyl)-4-hydroxy-2-oxo-1,2,5,7-tetrahydrothieno[3,4-b]pyridin-3-yl]caxbonyl]glycine] has an IC50 of at most 10 nM. O=C(O)CNC(=O)c1c(O)c2c(n(Cc3ccc(-c4cc(F)ccc4F)nc3)c1=O)CSC2 [Example 51, N-[(l-{[6-(2,5-difluorophenyl)pyridinium-3-yl]methyl}-4-hydroxy-2-oxo-1,2,5,7-tetrahydrothieno[3,4-6]pyridin-3-yl)carbonyl]glycine trifluoroacetate] was tested, and the IC50 was at most 10 nM. With O=C(O)CNC(=O)c1c(O)c2c(n(Cc3ccc(Cl)nc3)c1=O)CSC2 [Example 1, N-({1-[(6-chloropyridin-3-yl)methyl]-4-hydroxy-2-oxo-1,2,5,7-tetrahydrothieno[3,4-b]pyridin-3-yl}carbonyl)glycine] the IC50 was at most 10 nM. For O=C(O)CNC(=O)c1c(O)c2c(n(Cc3ccc(-c4ccccc4)cc3)c1=O)CS(=O)(=O)C2 [Example 64, N-{[1-(biphenyl-4-ylmethyl)-4-hydroxy-6,6-dioxido-2-oxo-1,2,5,7-tetrahydrothieno[3,4-b]pyridin-3-yl]carbonyl}glycine], the IC50 was at most 10 nM. O=C(O)CNC(=O)c1c(O)c2c(n(Cc3nc(-c4ccccc4)cs3)c1=O)CS(=O)(=O)C2 [Example 62, N-({4-hydroxy-6,6-dioxido-2-oxo-1-[(4-phenyl-1,3-thiazol-2-yl)methyl]-1,2,5,7-tetrahydrothieno[3,4-b]pyridin-3-yl}carbonyl)glycine] showed an IC50 of 10 to 100 nM. For O=C(O)CNC(=O)c1c(O)c2c(n(Cc3nc4ccccc4s3)c1=O)CSC2 [Example 11, N-{[1-(1,3-benzothiazol-2-ylmethyl)-4-hydroxy-2-oxo-1,2,5,7-tetrahydrothieno[3,4-b]pyridin-3-yl]carbonyl]glycine], the IC50 was at most 10 nM. With CC(=O)c1ccc(-c2ccc(Cn3c4c(c(O)c(C(=O)NCC(=O)O)c3=O)CSC4)cc2)cc1 [Example 28, N-({1-[(4′-acetylbiphenyl-4-yl)methyl]-4-hydroxy-2-oxo-1,2,5,7-tetrahydrothieno[3,4-b]pyridin-3-yl}carbonyl)glycine] the IC50 was at most 10 nM. For O=C(O)CNC(=O)c1c(O)c2c(n(Cc3ccc(Cl)c(Cl)c3)c1=O)CSC2 [Example 19, N-{[1-(3,4-dichlorobenzyl)-4-hydroxy-2-oxo-1,2,5,7-tetrahydrothieno[3,4-b]pyridin-3-yl]carbonyl}glycine], the IC50 was at most 10 nM. For O=C(O)CNC(=O)c1c(O)c2c(n(Cc3cnc(-c4cc(F)ccc4F)cn3)c1=O)CSC2 [Example 56, N-[(l-{[5-(2,5-difluorophenyl)pyrazin-2-yl]methyl}-4-hydroxy-2-oxo-1,2,5,7-tetrahydrothieno[3,4-b]pyridin-3-yl)carbonyl]glycine], the IC50 was at most 10 nM. O=C(O)CNC(=O)c1c(O)c2c(n(Cc3ccc(-c4ccc(C(F)(F)F)cc4)nc3)c1=O)CSC2 [Example 44, N-{[4-hydroxy-2-oxo-1-({6-[4-(trifluoromethyl)phenyl]pyridinium-3-yl}methyl)-1,2,5,7-tetrahydrothieno[3,4-b]pyridin-3-yl]caxbonyl}glycine trifluoroacetate] gave an IC50 of at most 10 nM. Cc1ccccc1-c1ccc(Cn2c3c(c(O)c(C(=O)NCC(=O)O)c2=O)CSC3)cn1 [Example 48, N-[(4-hydroxy-1-{[6-(2-methylphenyl)pyridinium-3-yl-methyl}-2-oxo-1,2,5,7-tetrahydrothieno[3,4-b]pyridin-3-yl)carbonyl]glycine trifluoroacetate] gave an IC50 of at most 10 nM. Work on Cc1ccc(-c2ccc(Cn3c4c(c(O)c(C(=O)NCC(=O)O)c3=O)C[S+]([O-])C4)cc2)cc1 (stereo not drawn) [Example 59, N-({4-hydroxy-1-[(4′-methylbiphenyl-4-yl)methyl]-6-oxido-2-oxo-1,2,5,7-tetrahydrothieno[3,4-b]pyridin-3-yl}carbonyl)glycine] yielded an IC50 of at most 10 nM. O=C(O)CNC(=O)c1c(O)c2c(n(Cc3cc4ccccc4s3)c1=O)CSC2 [Example 22, N-{[1-(1-benzothien-2-ylmethyl)-4-hydroxy-2-oxo-1,2,5,7-tetrahydrothieno[3,4-b]pyridin-3-yl]carbonyl}glycine] was tested, and the IC50 was at most 10 nM. For O=C(O)CNC(=O)c1c(O)c2c(n(Cc3ccc(-c4ccccc4Cl)nc3)c1=O)CSC2 [Example 41, N-[(l-{[6-(2-chlorophenyl)pyridinium-3-yl]methyl}-4-hydroxy-2-oxo-1,2,5,7-tetrahydrothieno[3,4-b]pyridin-3-yl)carbonyl]glycine trifluoroacetate], the IC50 was at most 10 nM. Work on Cc1cc(Cl)ccc1Cn1c2c(c(O)c(C(=O)NCC(=O)O)c1=O)CSC2 [Example 15, N-{[1-(4-chloro-2-methylbenzyl)-4-hydroxy-2-oxo-1,2,5,7-tetrahydrothieno[3,4-b]pyridin-3-yl]carbonyl}glycine] yielded an IC50 of at most 10 nM. O=C(O)CNC(=O)c1c(O)c2c(n(Cc3coc(-c4ccccc4)n3)c1=O)CSC2 [Example 21, N-({4-hydroxy-2-oxo-1-[(2-phenyl-1,3-oxazol-4-yl)methyl]-1,2,5,7-tetrahydrothieno[3,4-b]pyridin-3-yl}carbonyl)glycine] gave an IC50 of at most 10 nM. For O=C(O)CNC(=O)c1c(O)c2c(n(Cc3cccc(Cl)c3)c1=O)CSC2 [Example 14, N-{[1-(3-chlorobenzyl)-4-hydroxy-2-oxo-1,2,5,7-tetrahydrothieno[3,4-b]pyridin-3-yl]carbonyl}glycine], the IC50 was at most 10 nM. Work on Cc1ccccc1-c1cnc(Cn2c3c(c(O)c(C(=O)NCC(=O)O)c2=O)CSC3)cn1 [Example 54, N-[(4-hydroxy-1-{[5-(2-methylphenyl)pyrazin-2-yl]methyl}-2-oxo-1,2,5,7-tetrahydrothieno[3,4-b]pyridin-3-yl)carbonyl]glycine] yielded an IC50 of at most 10 nM. CCOc1ccc(-c2ccc(Cn3c4c(c(O)c(C(=O)NCC(=O)O)c3=O)CSC4)cc2)cc1 [Example 34, N-({1-[(4′-ethoxybiphenyl-4-yl)methyl]-4-hydroxy-2-oxo-1,2,5,7-tetrahydrothieno[3,4-b]pyridin-3-yl}carbonyl)glycine] was tested, and the IC50 was at most 10 nM. CSc1ccccc1-c1cnc(Cn2c3c(c(O)c(C(=O)NCC(=O)O)c2=O)CSC3)cn1 [Example 55, N-{[4-hydroxy-1-({5-[2-(methylthio)phenyl]pyrazin-2-yl}methyl)-2-oxo-1,2,5,7-tetrahydrothieno[3,4-b]pyridin-3-yl]carbonyl}glycine] was tested, and the IC50 was at most 10 nM. Compound O=C(O)CNC(=O)c1c(O)c2c(n(Cc3ccc(Cl)cc3)c1=O)CS(=O)(=O)C2 [Example 60, N-{[1-(4-chlorobenzyl)-4-hydroxy-6,6-dioxido-2-oxo-1,2,5,7-tetrahydrothieno[3,4-b]pyridin-3-yl]carbonyl}glycine] has an IC50 of at most 10 nM. O=C(O)CNC(=O)c1c(O)c2c(n(Cc3ccc(-c4ccccc4C(F)(F)F)nc3)c1=O)CSC2 [Example 45, N-{[4-hydroxy-2-oxo-1-({6-[2-(trifluoromethyl)phenyl]pyridinium-3-yl}methyl)-1,2,5,7-tetrahydrothieno[3,4-b]pyridin-3-yl]carbonyl}glycine trifluoroacetate] was tested, and the IC50 was at most 10 nM. O=C(O)CNC(=O)c1c(O)c2c(n(Cc3ccc(-c4cccc5ncccc45)cc3)c1=O)CSC2 [Example 52, N-{[4-hydroxy-2-oxo-1-(4-quinolinium-5-ylbenzyl)-1,2,5,7-tetrahydrothieno[3,4-b]pyridin-3-yl]carbonyl}glycine chloride] showed an IC50 of at most 10 nM. O=C(O)CNC(=O)c1c(O)c2c(n(Cc3ccc(Cl)cc3)c1=O)CSC2 [Example 16, N-{[1-(4-chlorobenzyl)-4-hydroxy-2-oxo-1,2,5,7-tetrahydrothieno[3,4-b]pyridin-3-yl]carbonyl}glycine] showed an IC50 of at most 10 nM. N#Cc1ccc(Cn2c3c(c(O)c(C(=O)NCC(=O)O)c2=O)CSC3)cc1 [Example 3, N-{[1-(4-cyanobenzyl)-4-hydroxy-2-oxo-1,2,5,7-tetrahydrothieno[3,4-b]pyridin-3-yl]carbonyl}glycine] showed an IC50 of at most 10 nM.
